Article PMC2810868 (Nature, 2009)

What was measured:
PYL2 = biological target: T1, PYL2 (Arabidopsis thaliana, UniProt O80992); test: crystal structure of PYL2-ABA; assay type: biochemical
T1 sequence (O80992 14-188): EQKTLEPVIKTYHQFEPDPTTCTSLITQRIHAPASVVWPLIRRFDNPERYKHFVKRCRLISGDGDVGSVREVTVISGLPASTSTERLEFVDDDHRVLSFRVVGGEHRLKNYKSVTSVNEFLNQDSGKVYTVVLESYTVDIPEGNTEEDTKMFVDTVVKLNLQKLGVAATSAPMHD
T1 sequence (Q9CAJ0 172-511 partner): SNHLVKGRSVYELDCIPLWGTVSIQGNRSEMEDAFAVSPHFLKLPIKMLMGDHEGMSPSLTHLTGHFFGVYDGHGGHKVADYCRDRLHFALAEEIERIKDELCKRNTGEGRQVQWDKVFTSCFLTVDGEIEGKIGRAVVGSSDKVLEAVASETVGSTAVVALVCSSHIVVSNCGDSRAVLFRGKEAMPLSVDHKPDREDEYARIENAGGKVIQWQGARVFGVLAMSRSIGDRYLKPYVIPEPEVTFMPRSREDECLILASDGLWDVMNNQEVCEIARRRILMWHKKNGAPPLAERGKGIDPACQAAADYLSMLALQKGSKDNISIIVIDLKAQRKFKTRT

PYR1(H115A) = biological target: T2, PYR1(H115A) (Arabidopsis thaliana, UniProt O49686, H115A); test: 1H-15N HSQC NMR with and without S-ABA; assay type: binding
T2 sequence (O49686 1-191 H115A): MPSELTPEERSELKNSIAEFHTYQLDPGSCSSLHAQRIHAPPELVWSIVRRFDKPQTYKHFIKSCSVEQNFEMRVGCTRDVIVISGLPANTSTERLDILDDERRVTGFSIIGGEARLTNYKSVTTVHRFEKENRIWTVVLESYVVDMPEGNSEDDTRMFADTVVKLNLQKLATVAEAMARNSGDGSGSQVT

- IC50 (PYL2): 0.15 µM
SMILES: CC1=CC(=O)CC(C)(C)C1(O)/C=C/C(C)=C\C(=O)O (centres unmarked) [S-ABA]
- 1H-15N HSQC NMR with and without S-ABA (PYR1(H115A)): ABA binding is unaltered by the H115A mutation in the PYR1 latch.
